Molecules are shown by their SMILES. Where “and” joins values, the source holds several entries; their conditions need not be identical. Identical values can stand only once. Positions of bridges follow the written chain, without caps; N, C: chain ends. Residues, ends and D or L forms follow the SMILES beside them. Where only a bound is given, the exact number is not on record here.

Experiment [1] relates to anesthetized male SD rats. The experiment is described as follows: In-vivo activity assay: peptide infusion in anesthetized rats (MAP, HR, PP, urine flow). On the set-up: species or system rat. The protocol: Male Sprague-Dawley (SD) rats (220-280 g) were obtained from Invivos, Singapore. Animals were acclimatized in the Animal Holding unit, NUS for 3 days before the experiment. The experiments were conducted under the guidance and approval of Institutional Animal Care and Use Committee, NUS (041/12).
The experiments were performed as described in Sridharan et al., [Biochem J 469 (2): 255-66 (2015)]. In brief, animals were anesthetized with sodium pentobarbital (60-70 mg/kg) and catheters were inserted in femoral artery, vein and urinary bladder. The body temperature of the animals was maintained using a thermostatic heat pad at 37° C. Continuous infusions (2 ml/h) of 0.2% BSA saline (with or without peptide) was administered through the femoral vein while a pressure transducer attached to the femoral artery recorded on-line changes in mean arterial pressure (MAP), heart rate (HR) and pulse pressure (PP). Urine was collected and the volume was measured after every 10 min. Experiments encompassed control (2×10 min), experimental (1×10 min) and recovery (4×10 min) periods. All animals were euthanized at the end of the experiment in carbon-di-oxide chambers.

Experiment [2] addresses T1, rat NPR-A (Rattus norvegicus, UniProt P18910).
T1 construct: expressed in transfected cells; host or cells: CHO-K1
T1 sequence (P18910 29-1057): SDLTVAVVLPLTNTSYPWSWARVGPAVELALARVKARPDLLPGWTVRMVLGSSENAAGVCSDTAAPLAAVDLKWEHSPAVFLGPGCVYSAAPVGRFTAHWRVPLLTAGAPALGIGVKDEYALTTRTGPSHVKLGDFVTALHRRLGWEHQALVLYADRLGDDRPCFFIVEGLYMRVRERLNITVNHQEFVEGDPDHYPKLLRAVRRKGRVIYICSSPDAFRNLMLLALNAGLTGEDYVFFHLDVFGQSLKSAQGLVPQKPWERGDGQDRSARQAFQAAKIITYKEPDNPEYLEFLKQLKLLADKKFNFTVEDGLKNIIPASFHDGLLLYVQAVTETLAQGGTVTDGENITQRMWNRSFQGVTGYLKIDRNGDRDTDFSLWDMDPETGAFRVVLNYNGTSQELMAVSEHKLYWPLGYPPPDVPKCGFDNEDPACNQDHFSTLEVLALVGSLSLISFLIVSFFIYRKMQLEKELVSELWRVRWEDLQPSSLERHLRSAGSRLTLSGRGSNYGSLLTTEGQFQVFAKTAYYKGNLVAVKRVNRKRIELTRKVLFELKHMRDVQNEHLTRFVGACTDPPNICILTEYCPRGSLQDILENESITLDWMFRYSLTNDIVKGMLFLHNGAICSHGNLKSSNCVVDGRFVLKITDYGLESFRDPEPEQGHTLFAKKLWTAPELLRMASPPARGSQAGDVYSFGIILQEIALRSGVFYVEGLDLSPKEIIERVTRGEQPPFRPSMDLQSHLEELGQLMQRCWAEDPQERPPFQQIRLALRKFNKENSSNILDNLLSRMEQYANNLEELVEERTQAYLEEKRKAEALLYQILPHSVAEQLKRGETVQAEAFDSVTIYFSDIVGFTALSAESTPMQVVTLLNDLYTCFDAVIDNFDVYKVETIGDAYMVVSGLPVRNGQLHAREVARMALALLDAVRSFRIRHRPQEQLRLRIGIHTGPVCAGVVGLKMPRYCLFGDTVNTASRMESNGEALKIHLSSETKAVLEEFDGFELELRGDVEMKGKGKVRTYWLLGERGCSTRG
Kind of experiment: Whole cell cGMP assay, 30 min end-point dose-response in CHO-K1 cells transiently expressing NPR-A. Format: cell-based. Particulars: for fold drop in activity compared to ANP: cGMP response; for NPR-A activation potency, Ratio compared wild type NPs: negative = more potent than wild type. As for the experimental part: (§1) The experiments were performed as described in Sridharan et al., [Biochem J 469 (2): 255-66 (2015)]. Dulbecco's modified Eagle's medium supplemented with 10% fetal bovine serum, 100 U/ml penicillin and 100 μg/ml streptomycin and 2 mM glutamine was used to grow CHO-K1 cells in a humidified incubator at 37° C. with 5% CO2. The cells were maintained by sub-culturing using 0.5% trypsin every three days. Cells (1×10^5) were seeded per well in 24-well plate and grown for 16 h. Cells in each well were transfected with 0.8 μg of plasmid encoding rat NPR-A using 2 μl of Lipofectamine™ 2000 transfection reagent. Cells were treated with the peptides 24 h after transfection.
NPR-A transfected CHO-K1 cells were treated with varying concentrations of peptides (10 nM to 10 μM dissolved in basal media containing 0.5 mM IBMX) for 30 min. The end-point accumulation of cGMP was measured after cell-lysis with 200 μl of 0.1 N HCl using Enzo life sciences cGMP ELISA kit (manufacturer's protocol).

Experiment [3] concerns the target T1, rat NPR-A. The experiment is described as follows: Time-chase study of cGMP accumulation (NPR-A activation kinetics) at EC50 concentration of peptide. Format: cell-based. Particulars: for Rate of generation of cGMP / time of peak / maximum accumulation of cGMP: EC50 concentration of peptide. As for the experimental part:
as §1
Time-chase study was performed by treating the cells with EC50 concentration of the peptides. The reactions were terminated at the indicated time-points (0, 2, 5, 10, 20 and 30 min) by treating the cells with 0.1 N HCl. The cGMP concentration in the cell lysate was measured using cGMP ELISA kit (Enzo life sciences).

Setting [4] is: 2.0 nmol/kg/min infusion, listed as DRDAND.
[5] abbreviates: equimolar infusion (2 nmol/kg/min).

On to `CC[C@H](C)[C@@H]1NC(=O)[C@H](CCCNC(=N)N)NC(=O)[C@H](CC(=O)O)NC(=O)[C@H](CCSC)NC(=O)[C@H](CCCNC(=N)N)NC(=O)CNC(=O)CNC(=O)[C@H](Cc2ccccc2)NC(=O)[C@@H](NC(=O)[C@H](CO)NC(=O)[C@H](CO)NC(=O)[C@H](CCCNC(=N)N)NC(=O)[C@H](CCCNC(=N)N)NC(=O)[C@H](CC(C)C)NC(=O)[C@@H](N)CO)CSSC[C@@H](C(=O)N[C@@H](CC(N)=O)C(=O)N[C@@H](CO)C(=O)N[C@@H](Cc2ccccc2)C(=O)N[C@@H](CCCNC(=N)N)C(=O)N[C@@H](Cc2ccc(O)cc2)C(=O)O)NC(=O)CNC(=O)[C@H](CC(C)C)NC(=O)CNC(=O)[C@H](CO)NC(=O)[C@H](CCC(N)=O)NC(=O)[C@H](C)NC(=O)CNC1=O` [ANP, reference compound], for which, in experiment [1] (0.08 nmol/kg/min infusion), the “Heart rate Peak response” value is −7.8 ± 2.4 BPM, the “Pulse pressure Peak response” value was −2.1 ± 1.5 mmHg, the “Urine flow rate Peak Time” value stood at 20 min and the “Urine flow rate Peak response” value came out at 5.4 ± 1.4 µL/min. The “Mean arterial pressure Peak response” value in experiment [1] (0.08 nmol/kg/min infusion, anesthetized rats) is −1.6 ± 1.5 mmHg. Besides, in experiment [1] (0.2 nmol/kg/min infusion), the “HR Rate of change per unit change in MAP” value is on record as 5.6; the “Heart rate Peak time” value is reported as 30 min; the “Mean arterial pressure Peak response” value was −10.1±0.8 mmHg and −10.1 ± 1.9 mmHg; the “Mean arterial pressure Peak time” value was 30 min. In addition, in experiment [1] (0.2 nmol/kg/min infusion), the “PP Rate of change per unit change in MAP” value is 0.5; the “Pulse pressure Peak response” value was −7.7±3.9 mmHg and −7.7±1.8 mmHg; the “Pulse pressure Peak time” value is recorded as 40 min; the “Urine flow rate Peak Time” value is listed as 20 min. The “Urine flow rate Peak response” value in experiment [1] (0.2 nmol/kg/min infusion) stood at 8.8 ± 1.3 µL/min.

For `CC[C@H](C)[C@@H]1NC(=O)[C@H](CCCNC(=N)N)NC(=O)[C@H](CC(=O)O)NC(=O)[C@H](CCSC)NC(=O)[C@H](CCCNC(=N)N)NC(=O)CNC(=O)[C@H](CC(=O)O)NC(=O)[C@H](Cc2ccccc2)NC(=O)[C@@H](NC(=O)[C@H](CO)NC(=O)[C@H](CO)NC(=O)[C@H](CCCNC(=N)N)NC(=O)[C@H](CCCNC(=N)N)NC(=O)[C@H](CC(C)C)NC(=O)[C@@H](N)CO)CSSC[C@@H](C(=O)N[C@@H](CC(N)=O)C(=O)N[C@@H](CO)C(=O)N[C@@H](Cc2ccccc2)C(=O)N[C@@H](CCCNC(=N)N)C(=O)N[C@@H](Cc2ccc(O)cc2)C(=O)O)NC(=O)CNC(=O)[C@H](CC(C)C)NC(=O)[C@H](CC(=O)O)NC(=O)[C@H](CO)NC(=O)[C@H](CCC(N)=O)NC(=O)[C@H](C)NC(=O)CNC1=O` [^DGDANP] (H-SLRRSSCFDGRMDRIGAQSDLGCNSFRY-OH; disulfide 7-23; N-terminus assumed), in experiment [1] (2 nmol/kg/min infusion), the “HR Rate of change per unit change in MAP” value is on record as 4.4, the “PP Rate of change per unit change in MAP” value was 0.5 and the “delay of the peak of diuresis” value worked out at 10 min. Moreover, in experiment [1] (2.0 nmol/kg/min infusion), the “Mean arterial pressure Peak response” value is −4.8±2.3 mmHg and −4.8 ± 2.9 mmHg; the “Urine flow rate Peak Time” value is given as 30 min; the “Urine flow rate Peak response” value is 7.9 ± 2.1 µL/min and 7.9 ± 2.0 µL/min. Moreover, on rat NPR-A [2], the “NPR-A activation potency, Ratio compared ANP” value was determined as 7.8; the “fold drop in activity compared to ANP” value is 8 fold; the “NPR-A activation potency, Ratio compared wild type NPs” value is 7.8. At rat NPR-A [3], the “Rate of generation of cGMP, Ratio compared ANP” value was found to be 56.9; the “Rate of generation of cGMP, Ratio compared wild type NPs” value is reported as 56.9; the “times slower activation kinetics compared to the wild type (ANP)” value stood at 7.8 times; the “Rate of generation of cGMP” value was found to be 0.14 pmol cGMP/pmol peptide. The “time of peak / maximum accumulation of cGMP” value at rat NPR-A [3] is 10 min.

For the molecule `CC[C@H](C)[C@@H]1NC(=O)[C@H](CCCNC(=N)N)NC(=O)[C@H](CC(=O)O)NC(=O)[C@H](CCSC)NC(=O)[C@H](CCCNC(=N)N)NC(=O)[C@H](CCCNC(=N)N)NC(=O)[C@H](CC(=O)O)NC(=O)[C@H](Cc2ccccc2)NC(=O)[C@@H](NC(=O)[C@H](CO)NC(=O)[C@H](CO)NC(=O)[C@H](CCCNC(=N)N)NC(=O)[C@H](CCCNC(=N)N)NC(=O)[C@H](CC(C)C)NC(=O)[C@@H](N)CO)CSSC[C@@H](C(=O)N[C@@H](CC(N)=O)C(=O)N[C@@H](CO)C(=O)N[C@@H](Cc2ccccc2)C(=O)N[C@@H](CCCNC(=N)N)C(=O)N[C@@H](Cc2ccc(O)cc2)C(=O)O)NC(=O)CNC(=O)[C@H](CC(C)C)NC(=O)[C@H](CC(=O)O)NC(=O)[C@H](CO)NC(=O)[C@H](CCC(N)=O)NC(=O)[C@H](C)NC(=O)CNC1=O` [^DRDANP] (H-SLRRSSCFDRRMDRIGAQSDLGCNSFRY-OH; disulfide 7-23; N-terminus assumed), in experiment [1] (0.2 nmol/kg/min infusion), the “Heart rate Peak response” value was −37.5±9.5 BPM, the “Heart rate Peak time” value worked out at 30 min, the “Mean arterial pressure Peak response” value is −12.9±1.5 mmHg and the “Mean arterial pressure Peak time” value is listed as 30 min. Moreover, in experiment [1] (0.2 nmol/kg/min infusion), the “Pulse pressure Peak time” value is given as 20 min, the “Urine flow rate Peak response” value is <2 µL/min and the diuresis entry was “failed to induce diuresis”. Further, in experiment [1] (2 nmol/kg/min infusion), the “HR Rate of change per unit change in MAP” value is recorded as 4.5 and the “PP Rate of change per unit change in MAP” value was found to be 0.5. For the same molecule, in experiment [1] (2.0 nmol/kg/min infusion), the “Heart rate Peak response” value is reported as −66.6±14.6 BPM, the “Heart rate Peak time” value was found to be 30 min, the “Mean arterial pressure Peak response” value is on record as −18.3±2.3 mmHg and the “Mean arterial pressure Peak time” value is 30 min. In addition, in experiment [1] (2.0 nmol/kg/min infusion), the “Pulse pressure Peak response” value is reported as −7.9±1.8 mmHg, the “Pulse pressure Peak time” value is recorded as 20 min, the “Urine flow rate Peak Time” value worked out at 20 min and the “Urine flow rate Peak response” value stood at 18.7 ± 0.7 µL/min. Besides, in experiment [1] (setting [4]), the “Heart rate Peak response” value was −66.6 ± 14.5 BPM, the “Mean arterial pressure Peak response” value is given as −18.4 ± 2.4 mmHg, the “Pulse pressure Peak response” value is −8.0 ± 1.8 mmHg and the “Urine flow rate Peak response” value was found to be 18.8 ± 0.7 µL/min. Moreover, in experiment [1] (setting [5]), the “diuresis compared to K-Ring^NSFRY” value came to 2 fold and the “influence on HR compared to K-Ring^NSFRY” value worked out at 2 fold. Further, on rat NPR-A [2], the “NPR-A activation potency, Ratio compared ANP” value was 2.6; the “fold drop in activity compared to ANP” value is recorded as 3 fold; the “NPR-A activation potency, Ratio compared wild type NPs” value is on record as 2.6. For the same molecule, at rat NPR-A [3], the “Rate of generation of cGMP, Ratio compared ANP” value is recorded as 21.0; the “Rate of generation of cGMP, Ratio compared wild type NPs” value stood at 21.0; the “times slower activation kinetics compared to the wild type (ANP)” value amounted to 2.6 times; the “Rate of generation of cGMP” value came to 0.38 pmol cGMP/pmol peptide. Besides, the “time of peak / maximum accumulation of cGMP” value at rat NPR-A [3] is reported as 10 min.

The record behind these values is patent US11312758B2, “Peptides with vasodilatory and/or diuretic functions” (National University of Singapore, priority 2016, dated 2022).
